What all share (assay): Protein kinase inhibition assay
Common to all, as to type: biochemical

One assay concerns the target PKBγ(h) (Homo sapiens, UniProt Q9Y243). The note with it: read-out: percent residual activity of PKBγ(h). The protocol:
(§1) Certain compounds were tested for activity in protein kinase inhibition assays. All substrates were dissolved and diluted to working stocks in de-ionized water, apart from histone H1 (10× working stock in 20 mM MOPS pH 7.0), PDKtide (10× working stock in 50 mM Tris pH 7.0) ATF2 (which is typically stored at a 20× working stock in 50 mM Tris pH 7.5, 150 mM NaCl, 0.1 mM EGTA, 0.03% Brij-35, 50% glycerol, 1 mM benzamidine, 0.2 mM PMSF and 0.1% R-mercaptoethanol), KKLNRTLSFAEPG (SEQ ID NO:203) and RRRLSFAEPG (SEQ ID NO:204) (50 mM HEPES pH 7.4) and GGEEEEYFELVKKKK (SEQ ID NO:205) (20 mM MOPS pH 7.0). All kinases were pre-diluted to a 10× working concentration prior to addition into the assay. The composition of the dilution buffer for each kinase is detailed below.
(§2) In a final reaction volume of 25 μl, PKBγ (h) (5-10 mU) is incubated with 8 mM MOPS pH 7.0, 0.2 mM EDTA, 30 μM GRPRTSSFAEGKK (SEQ ID NO:232), 10 mM MgAcetate and [gamma-33P-ATP] (specific activity approx. 500 cpm/pmol, concentration as required). The reaction is initiated by the addition of the MgATP mix. After incubation for 40 minutes at room temperature, the reaction is stopped by the addition of 5 μl of a 3% phosphoric acid solution. 10 μl of the reaction is then spotted onto a P30 filtermat and washed three times for 5 minutes in 75 mM phosphoric acid and once in methanol prior to drying and scintillation counting.

A further assay concerns the target IKKβ(h) (Homo sapiens, UniProt O14920). The note with it: read-out: percent residual activity of IKKβ(h). The procedure: as §1
as §2, with “μl, IKKβ” for “μl, PKBγ”, “EDTA, 100” for “EDTA, 30”, “μM peptide,” for “μM GRPRTSSFAEGKK (SEQ ID NO:232),”

The target of a further assay is SGK3(h) (Homo sapiens, UniProt Q96BR1). The note with it: read-out: percent residual activity of SGK3(h). The protocol: as §1
Sequence of SGK3(h) (Q96BR1 whole entry): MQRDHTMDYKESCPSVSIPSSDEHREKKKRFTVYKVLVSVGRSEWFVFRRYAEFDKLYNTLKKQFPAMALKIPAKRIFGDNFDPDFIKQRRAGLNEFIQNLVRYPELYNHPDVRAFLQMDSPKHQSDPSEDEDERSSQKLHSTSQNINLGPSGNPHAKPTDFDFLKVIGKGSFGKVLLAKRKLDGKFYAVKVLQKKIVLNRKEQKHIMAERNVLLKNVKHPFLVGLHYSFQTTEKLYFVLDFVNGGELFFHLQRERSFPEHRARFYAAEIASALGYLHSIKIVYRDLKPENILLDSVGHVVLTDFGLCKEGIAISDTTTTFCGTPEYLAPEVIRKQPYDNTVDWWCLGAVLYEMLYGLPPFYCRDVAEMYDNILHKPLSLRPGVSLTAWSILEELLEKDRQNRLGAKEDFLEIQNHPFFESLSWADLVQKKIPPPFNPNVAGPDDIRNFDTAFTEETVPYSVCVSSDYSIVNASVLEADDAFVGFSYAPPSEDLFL
as §2, with “μl, SGK3” for “μl, PKBγ”, “EDTA, 250” for “EDTA, 30”, “ID NO:226),” for “ID NO:232),”

A further assay deals with Ros(h) (Homo sapiens, UniProt P08922). The note with it: read-out: percent residual activity of Ros(h). The procedure:
as §1
In a final reaction volume of 25 μl, Ros (h) (5-10 mU) is incubated with 8 mM MOPS pH 7.0, 0.2 mM EDTA, 10 mM MnCl2, 250 μM KKKSPGEYVNIEFG (SEQ ID NO:207), 10 mM MgAcetate and [gamma-33P-ATP] (specific activity approx. 500 cpm/pmol, concentration as required). The reaction is initiated by the addition of the MgATP mix. After incubation for 40 minutes at room temperature, the reaction is stopped by the addition of 5 μl of a 3% phosphoric acid solution. […]

The target in a further assay is SAPK4(h) (Homo sapiens, UniProt O15264). The following applies: read-out: percent residual activity of SAPK4(h). The protocol:
as §1
as §2, with “SAPK4” for “PKBγ”, “25” for “8”, “Tris” for “MOPS”, “7.5, 0.02” for “7.0, 0.2”, “EGTA, 0.33 mg/ml myelin basic protein,” for “EDTA, 30 μM GRPRTSSFAEGKK (SEQ ID NO:232),”

A further assay deals with CDK5/p25(h) (Homo sapiens, UniProt Q00535). The following applies: read-out: percent residual activity of CDK5/p25(h). The procedure: as §1
Sequence of CDK5/p25(h) (Q00535 whole entry): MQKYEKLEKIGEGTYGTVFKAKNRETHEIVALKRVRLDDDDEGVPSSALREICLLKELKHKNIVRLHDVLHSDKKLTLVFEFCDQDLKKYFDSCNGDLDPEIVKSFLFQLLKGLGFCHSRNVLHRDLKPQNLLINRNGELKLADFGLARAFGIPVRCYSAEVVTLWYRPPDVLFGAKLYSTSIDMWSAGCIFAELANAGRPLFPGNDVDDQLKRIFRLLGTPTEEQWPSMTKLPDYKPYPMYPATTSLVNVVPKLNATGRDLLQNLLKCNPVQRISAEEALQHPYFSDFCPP
Sequence of CDK5/p25(h) (Q15078 99-307 partner limits assumed): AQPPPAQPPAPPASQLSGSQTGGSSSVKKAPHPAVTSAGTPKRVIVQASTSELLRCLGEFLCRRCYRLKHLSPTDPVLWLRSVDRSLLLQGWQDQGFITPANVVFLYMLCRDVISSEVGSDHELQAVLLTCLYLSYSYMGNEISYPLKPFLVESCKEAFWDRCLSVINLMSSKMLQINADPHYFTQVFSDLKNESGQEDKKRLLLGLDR
as §2, with “CDK5/p25” for “PKBγ”, “0.1 mg/ml histone H1,” for “30 μM GRPRTSSFAEGKK (SEQ ID NO:232),”, “[y-33P-ATP]” for “[gamma-33P-ATP]”

Sequence of SAPK4(h) (O15264 whole entry): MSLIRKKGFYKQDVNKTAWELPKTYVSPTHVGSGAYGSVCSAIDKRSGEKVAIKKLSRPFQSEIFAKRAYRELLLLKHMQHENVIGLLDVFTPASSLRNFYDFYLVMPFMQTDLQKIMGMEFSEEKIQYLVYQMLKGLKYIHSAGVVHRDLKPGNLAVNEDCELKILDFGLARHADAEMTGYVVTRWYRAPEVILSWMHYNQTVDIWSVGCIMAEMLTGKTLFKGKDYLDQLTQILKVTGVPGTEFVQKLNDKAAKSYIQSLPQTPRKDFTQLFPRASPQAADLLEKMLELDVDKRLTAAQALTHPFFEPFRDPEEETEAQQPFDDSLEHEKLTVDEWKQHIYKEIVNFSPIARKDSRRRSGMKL
Sequence of IKKβ(h) (O14920 whole entry): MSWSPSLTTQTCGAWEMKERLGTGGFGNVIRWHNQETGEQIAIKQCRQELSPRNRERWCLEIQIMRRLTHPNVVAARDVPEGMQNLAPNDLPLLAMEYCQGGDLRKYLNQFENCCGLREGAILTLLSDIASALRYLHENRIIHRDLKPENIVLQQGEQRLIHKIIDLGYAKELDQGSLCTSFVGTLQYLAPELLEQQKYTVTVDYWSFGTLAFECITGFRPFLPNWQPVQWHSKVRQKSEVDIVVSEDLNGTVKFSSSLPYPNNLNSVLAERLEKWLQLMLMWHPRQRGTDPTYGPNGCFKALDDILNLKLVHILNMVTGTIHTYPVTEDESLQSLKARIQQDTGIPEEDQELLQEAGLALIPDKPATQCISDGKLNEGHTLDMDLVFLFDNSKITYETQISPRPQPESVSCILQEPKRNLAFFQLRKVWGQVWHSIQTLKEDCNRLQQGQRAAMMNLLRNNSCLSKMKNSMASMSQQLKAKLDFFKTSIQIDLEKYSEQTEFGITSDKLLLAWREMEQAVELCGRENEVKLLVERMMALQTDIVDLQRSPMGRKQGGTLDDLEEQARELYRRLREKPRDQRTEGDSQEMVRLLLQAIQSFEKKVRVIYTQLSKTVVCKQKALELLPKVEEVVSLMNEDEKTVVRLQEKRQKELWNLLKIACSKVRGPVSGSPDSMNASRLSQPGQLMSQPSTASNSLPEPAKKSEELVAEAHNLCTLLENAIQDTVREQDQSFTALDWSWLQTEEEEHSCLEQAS
Sequence of PKBγ(h) (Q9Y243 whole entry): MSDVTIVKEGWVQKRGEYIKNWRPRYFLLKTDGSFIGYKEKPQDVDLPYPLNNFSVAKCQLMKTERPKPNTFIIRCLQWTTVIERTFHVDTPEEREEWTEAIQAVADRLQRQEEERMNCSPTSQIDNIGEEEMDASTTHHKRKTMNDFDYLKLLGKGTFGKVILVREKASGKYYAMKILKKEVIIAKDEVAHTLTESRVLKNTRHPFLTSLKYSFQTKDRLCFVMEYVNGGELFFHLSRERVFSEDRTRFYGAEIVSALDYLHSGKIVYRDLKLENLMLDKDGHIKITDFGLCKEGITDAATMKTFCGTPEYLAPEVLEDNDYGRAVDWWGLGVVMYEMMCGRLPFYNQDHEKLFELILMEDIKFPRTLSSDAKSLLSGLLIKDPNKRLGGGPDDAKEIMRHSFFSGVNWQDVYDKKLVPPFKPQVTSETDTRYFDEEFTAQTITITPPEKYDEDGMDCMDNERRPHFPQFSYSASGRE
Sequence of Ros(h) (P08922 28-2347): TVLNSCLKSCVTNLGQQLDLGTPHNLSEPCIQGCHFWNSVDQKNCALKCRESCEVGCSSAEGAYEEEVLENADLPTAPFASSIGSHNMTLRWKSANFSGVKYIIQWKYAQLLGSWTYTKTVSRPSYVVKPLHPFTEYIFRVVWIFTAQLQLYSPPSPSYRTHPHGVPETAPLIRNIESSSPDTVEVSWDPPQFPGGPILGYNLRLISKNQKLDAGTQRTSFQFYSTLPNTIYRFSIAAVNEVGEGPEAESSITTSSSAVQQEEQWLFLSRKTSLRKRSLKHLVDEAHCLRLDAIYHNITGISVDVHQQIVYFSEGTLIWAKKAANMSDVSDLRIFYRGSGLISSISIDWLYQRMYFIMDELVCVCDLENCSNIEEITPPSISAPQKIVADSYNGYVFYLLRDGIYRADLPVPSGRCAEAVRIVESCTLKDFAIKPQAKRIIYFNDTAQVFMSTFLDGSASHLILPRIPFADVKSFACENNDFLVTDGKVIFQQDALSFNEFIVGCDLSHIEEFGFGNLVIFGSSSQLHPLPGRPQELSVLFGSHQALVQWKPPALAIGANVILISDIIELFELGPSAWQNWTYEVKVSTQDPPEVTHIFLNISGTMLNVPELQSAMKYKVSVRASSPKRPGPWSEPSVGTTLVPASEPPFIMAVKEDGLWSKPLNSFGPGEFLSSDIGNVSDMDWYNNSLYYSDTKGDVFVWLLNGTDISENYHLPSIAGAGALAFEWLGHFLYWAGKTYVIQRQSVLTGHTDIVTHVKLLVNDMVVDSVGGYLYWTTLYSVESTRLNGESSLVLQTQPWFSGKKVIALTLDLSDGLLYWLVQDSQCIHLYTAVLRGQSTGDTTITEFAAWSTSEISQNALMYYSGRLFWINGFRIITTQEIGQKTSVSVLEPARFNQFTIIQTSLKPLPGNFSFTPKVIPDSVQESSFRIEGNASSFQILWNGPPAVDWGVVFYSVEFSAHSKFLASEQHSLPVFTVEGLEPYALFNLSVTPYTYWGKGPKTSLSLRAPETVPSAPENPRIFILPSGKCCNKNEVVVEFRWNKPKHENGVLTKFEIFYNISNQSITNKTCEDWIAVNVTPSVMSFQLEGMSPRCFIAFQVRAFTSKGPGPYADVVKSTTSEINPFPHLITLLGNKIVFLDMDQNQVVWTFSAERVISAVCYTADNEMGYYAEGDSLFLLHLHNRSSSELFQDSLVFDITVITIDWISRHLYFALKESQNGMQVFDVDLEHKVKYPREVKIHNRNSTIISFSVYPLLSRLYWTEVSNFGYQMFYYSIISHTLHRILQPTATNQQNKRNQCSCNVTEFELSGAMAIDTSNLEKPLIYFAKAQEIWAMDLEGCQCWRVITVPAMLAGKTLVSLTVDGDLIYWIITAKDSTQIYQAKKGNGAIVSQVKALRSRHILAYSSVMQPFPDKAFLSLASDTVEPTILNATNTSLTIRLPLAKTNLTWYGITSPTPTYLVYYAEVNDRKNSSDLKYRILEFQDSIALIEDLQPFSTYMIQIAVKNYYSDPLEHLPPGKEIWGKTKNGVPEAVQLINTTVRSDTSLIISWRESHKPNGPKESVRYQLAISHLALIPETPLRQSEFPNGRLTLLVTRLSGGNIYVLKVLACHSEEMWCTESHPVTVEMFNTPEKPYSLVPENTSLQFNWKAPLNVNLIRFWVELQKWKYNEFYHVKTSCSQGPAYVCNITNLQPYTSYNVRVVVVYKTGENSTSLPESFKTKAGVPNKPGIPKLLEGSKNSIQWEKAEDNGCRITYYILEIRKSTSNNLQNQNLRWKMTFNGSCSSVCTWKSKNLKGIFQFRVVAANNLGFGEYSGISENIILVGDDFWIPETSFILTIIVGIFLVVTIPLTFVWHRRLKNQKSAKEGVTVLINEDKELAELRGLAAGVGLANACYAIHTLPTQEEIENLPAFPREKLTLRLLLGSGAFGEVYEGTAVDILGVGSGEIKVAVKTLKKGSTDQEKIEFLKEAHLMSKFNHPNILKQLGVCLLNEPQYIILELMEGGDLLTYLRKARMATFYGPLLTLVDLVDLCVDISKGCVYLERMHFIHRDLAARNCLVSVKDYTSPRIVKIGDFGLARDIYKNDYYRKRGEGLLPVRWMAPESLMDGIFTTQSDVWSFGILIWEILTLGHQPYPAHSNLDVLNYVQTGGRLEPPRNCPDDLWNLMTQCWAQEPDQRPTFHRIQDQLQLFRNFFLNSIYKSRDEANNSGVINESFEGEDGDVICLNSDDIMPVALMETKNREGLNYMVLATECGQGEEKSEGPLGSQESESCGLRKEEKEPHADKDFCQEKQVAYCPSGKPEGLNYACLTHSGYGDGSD

With `CN1CCCC1CCNC(=O)c1cn2c3c(c(N4CCC(c5cnccn5)C4)c(F)cc3c1=O)Oc1cc3ccccc3cc1-2` (stereo not drawn) [Compound A-1], the remaining activity at 2.5 µM on PKBγ(h) was 64%; at IKKβ(h), 56%; on SGK3(h), 44%; at Ros(h) it was 115%; at SAPK4(h) it was 31%; on CDK5/p25(h), 77%.
For `CC(=O)N1CCN(c2ccc3c(=O)c(C(=O)NCCN4CCCC4)c4n(C)c5ccccc5n4c3n2)CC1` [Compound B-1], the remaining activity at 2.5 µM at PKBγ(h) was determined as 95%; at IKKβ(h), 105%; on SGK3(h), 128%; at Ros(h), 113%; at SAPK4(h) it was 105%; on CDK5/p25(h), 99%.

Source of the values: patent US20070117770A1, “Human ribosomal DNA (rDNA) and ribosomal RNA (rRNA) nucleic acids and uses thereof” (Cylene Pharmaceuticals, Inc., priority 2005, published 2007).
